In article PMC7140498, “Predicting liver cytosol stability of small molecules” (Journal of Cheminformatics, 2020):

Assay: Metabolic stability assay (substrate depletion) in human liver cytosol fractions
Settings: both, human, cytosol, pH 7.4, t1/2 [min] (Right), external validation, sheet Human, right compound
Method: Our assay (384-well format) consisted of two parts; a robotic system for incubation and sample clean up and an integrated LC/MS method to calculate the percent remaining of parent compound. Briefly, each reaction mixture (110 μL) consisted of a test compound (1 μM) and either human or mouse cytosol fractions (2 mg/mL) in phosphate buffer (100 mM) at pH 7.4. Samples were incubated in 384-well plates at 37 °C for 0, 5, 10, 15, 30 and 60 min. Sample analysis and t1/2 calculations were performed using a previously described method [15]. […] A set of control compounds for low and high cytosolic stability were routinely run in each plate.

Row | SMILES | half-life at 1 μM
1 | CN1CCN(C(=O)Cc2cccn2-c2ccc(F)cc2)CC1 [CN1CCN(C(=O)Cc2cccn2-c2ccc(F)cc2)CC1] | > 2 h

Same assay, conditions: both, human, liver cytosol fractions, pH 7.4, t1/2 [min] (Left), external validation, sheet Human, left compound

Row | SMILES | half-life at 1 μM
2 | N#Cc1cccc(CN2CC(COc3ccccc3)C3(C2)CN(c2ccccc2)C3)c1 (stereo not shown) | 0.693 h
3 | O=C(c1ccsc1)N1CCC(Oc2cccc(F)c2)C1 (stereo not shown) [O=C(c1ccsc1)N1CCC(Oc2cccc(F)c2)C1] | 1.38 h
4 | N#Cc1ccc(C(=O)N2CCCOCCNC(=O)CC2)cc1 [N#Cc1ccc(C(=O)N2CCCOCCNC(=O)CC2)cc1] | > 2 h
5 | CN1c2cc(C(=O)Nc3ccc(C#N)cc3)ccc2C(=O)N2CCCCC21 (stereo not shown) | > 2 h
6 | N#Cc1ccc(CN2CC(Oc3ccc(F)cc3F)C2)cc1 [N#Cc1ccc(CN2CC(Oc3ccc(F)cc3F)C2)cc1] | 1.05 h
7 | CC(C)(C)c1coc([C@@H]2COCCN2Cc2cccc(C#N)c2)n1 | 0.943 h

Same assay, conditions: both, human, liver cytosol fractions, pH 7.4, t1/2 [min] (Right), external validation, sheet Human, right compound

Row | SMILES | half-life at 1 μM
8 | O=C(N1CCN(S(=O)(=O)c2ccccc2)CC1)N1CC2CC(C1)[C@H]1CCCC(=O)N1C2 (stereo partly shown) | > 2 h
9 | COc1cccc(CN2CC[C@H](c3nnc(-c4ccco4)o3)C2)c1 | 1.97 h
10 | COc1cccc(-c2c(C(=O)N3CCOCC3)nc3sccn23)c1 [COc1cccc(-c2c(C(=O)N3CCOCC3)nc3sccn23)c1] | > 2 h
11 | COc1cccc(CN2CCOC[C@H](O)C2)c1 [COc1cccc(CN2CCOC[C@H](O)C2)c1] | 0.47 h
12 | COc1ccc(CN2CCC(N3CCNC3=O)CC2)cc1 [COc1ccc(CN2CCC(N3CCNC3=O)CC2)cc1] | > 2 h
13 | CN(Cc1ccccc1)C1CCOc2ccccc21 (stereo not shown) [CN(Cc1ccccc1)C1CCOc2ccccc21] | 0.127 h
14 | COc1cccc(-c2cn3c(n2)N(C(=O)c2ccco2)CCC3)c1 | 0.993 h
15 | COc1ccc(CN2CC(Oc3ccc(F)c(F)c3)C2)cc1 [COc1ccc(CN2CC(Oc3ccc(F)c(F)c3)C2)cc1] | 0.5 h
16 | Cc1nn2c(c1-c1ccccc1Oc1ccccc1)N(Cc1ccc(C(=O)O)cc1)CCC2 | > 2 h
17 | COCCOC1CCN(C(=O)Nc2ccccc2)CC1 [COCCOC1CCN(C(=O)Nc2ccccc2)CC1] | > 2 h
18 | COc1ccccc1CN1CCC2(CC1)CC(O)CCO2 (stereo not shown) [COc1ccccc1CN1CCC2(CC1)CC(O)CCO2] | > 2 h
19 | COc1cccc(-c2cn3c(n2)N(C(=O)c2ccoc2)CCC3)c1 | 1.86 h
20 | COc1cccc(CN2CC[C@H](c3nc4ccccc4[nH]3)C2)c1 | > 2 h
21 | COc1ccc(CN2CC(Oc3ccc(F)cc3C)C2)cc1 [COc1ccc(CN2CC(Oc3ccc(F)cc3C)C2)cc1] | 0.35 h
22 | CNC(=O)[C@@H]1CN(C(=O)c2cccc(OC)c2)C[C@H]1COC | > 2 h
23 | COc1ccc(CN2CCC(N3Cc4cccn4C3=O)CC2)cc1 [COc1ccc(CN2CCC(N3Cc4cccn4C3=O)CC2)cc1] | > 2 h
24 | COc1ccc(CN2CC(N3CCc4ccccc43)C2)cc1 [COc1ccc(CN2CC(N3CCc4ccccc43)C2)cc1] | 1.37 h
25 | COc1ccc(CN2CCC(N3CCOC3=O)CC2)cc1 [COc1ccc(CN2CCC(N3CCOC3=O)CC2)cc1] | > 2 h
26 | COc1ccc(C(=O)N2CCC3(CCC3OC)CC2)cc1 (stereo not shown) [COc1ccc(C(=O)N2CCC3(CCC3OC)CC2)cc1] | 1.17 h
27 | O=C(O)c1ccc(CN2CCOC[C@H]2c2nc(-c3ccc(F)cc3)c[nH]2)cc1 | > 2 h

Row | SMILES | half-life at 1 μM
28 | CN1CCC(OC2CCN(C(=O)c3ccccc3)CC2)CC1 [CN1CCC(OC2CCN(C(=O)c3ccccc3)CC2)CC1] | > 2 h
29 | Cc1cc2cc(-c3c(C)noc3C)nc(Nc3ccccc3)c2o1 [Cc1cc2cc(-c3c(C)noc3C)nc(Nc3ccccc3)c2o1] | 0.593 h
30 | COc1cccc(-c2c(C(=O)NC3CC3)nc3sccn23)c1 [COc1cccc(-c2c(C(=O)NC3CC3)nc3sccn23)c1] | > 2 h
31 | O=C(c1cccs1)N1CCC(Oc2ccccc2)C1 (stereo not shown) [O=C(c1cccs1)N1CCC(Oc2ccccc2)C1] | 0.638 h
32 | COc1cccc(CN2CCC3(CC2)OCCN(C)C3=O)c1 [COc1cccc(CN2CCC3(CC2)OCCN(C)C3=O)c1] | > 2 h
33 | COc1cccc(-c2c(C(=O)N3CCCCC3)nc3sccn23)c1 [COc1cccc(-c2c(C(=O)N3CCCCC3)nc3sccn23)c1] | 1.9 h
34 | COc1ccc(CN2CC[C@H](c3nnc(C)o3)C2)cc1 [COc1ccc(CN2CC[C@H](c3nnc(C)o3)C2)cc1] | > 2 h
35 | CCOc1cc(=O)n2c(c1C(=O)Nc1ccc(S(N)(=O)=O)cc1)CCCC2 | > 2 h
36 | COc1ccc(CN2CC(Oc3ccc(OC)cc3)C2)cc1 [COc1ccc(CN2CC(Oc3ccc(OC)cc3)C2)cc1] | > 2 h
37 | COc1ccc(CN2CCC3(C2)NC(=O)c2ccccc2O3)cc1 (stereo not shown) [COc1ccc(CN2CCC3(C2)NC(=O)c2ccccc2O3)cc1] | > 2 h
38 | COc1ccc(CN2CC(Oc3ccc(F)c(C)c3)C2)cc1 [COc1ccc(CN2CC(Oc3ccc(F)c(C)c3)C2)cc1] | 0.36 h
39 | COc1ccc(CN2CCC3(COc4ccccc4C(=O)N3)C2)cc1 (stereo not shown) [COc1ccc(CN2CCC3(COc4ccccc4C(=O)N3)C2)cc1] | 0.578 h
40 | CCOCCOC1CCN(C(=O)Nc2ccccc2)CC1 [CCOCCOC1CCN(C(=O)Nc2ccccc2)CC1] | > 2 h
41 | CN(CC1CCOC1)C(=O)Nc1ccccc1 (stereo not shown) [CN(CC1CCOC1)C(=O)Nc1ccccc1] | > 2 h
42 | O=C(c1ccoc1)N1CCC(Oc2ccccc2)C1 (stereo not shown) [O=C(c1ccoc1)N1CCC(Oc2ccccc2)C1] | > 2 h
43 | COCCNC(=O)c1nc2sccn2c1-c1cccc(OC)c1 [COCCNC(=O)c1nc2sccn2c1-c1cccc(OC)c1] | > 2 h
44 | COc1ccc(CN2CC[C@@](C)(O)[C@H](N3CCCC3)C2)cc1 | > 2 h
45 | Cc1noc(-c2cn(C3CCN(C(=O)c4ccccc4)C3)nn2)n1 (stereo not shown) | > 2 h
46 | CCN1CCN(C(=O)c2nc3sccn3c2-c2cccc(OC)c2)CC1 | > 2 h
47 | COc1ccc(C(=O)N2C[C@@H](CO)[C@H](N(C)C)C2)cc1 | > 2 h

Same assay, conditions: both, human, liver cytosol fractions, pH 7.4, t1/2 [min] (left), in-house library pair, human transforms, left compound

Row | SMILES | half-life at 1 μM
48 | N#Cc1cccc(CN2CC(COc3ccccc3)C3(C2)CN(c2ccccc2)C3)c1 (stereo not shown) | 0.693 h
49 | O=C(c1ccsc1)N1CCC(Oc2cccc(F)c2)C1 (stereo not shown) [O=C(c1ccsc1)N1CCC(Oc2cccc(F)c2)C1] | 1.38 h
50 | N#Cc1ccc(C(=O)N2CCCOCCNC(=O)CC2)cc1 [N#Cc1ccc(C(=O)N2CCCOCCNC(=O)CC2)cc1] | > 2 h
51 | N#Cc1ccc(CN2CC(Oc3ccc(F)cc3F)C2)cc1 [N#Cc1ccc(CN2CC(Oc3ccc(F)cc3F)C2)cc1] | 1.05 h
52 | CC(C)(C)c1coc([C@@H]2COCCN2Cc2cccc(C#N)c2)n1 | 0.943 h

Same assay, conditions: external validation, sheet Human, left compound

Row | SMILES | t1/2 [min] (Left)
53 | COC1CCC12CCN(C(=O)c1ccc(C#N)cc1)CC2 (stereo not shown) [COC1CCC12CCN(C(=O)c1ccc(C#N)cc1)CC2] | 79.2 min
54 | N#Cc1ccc(CN2CC(Oc3ccc(F)c(F)c3)C2)cc1 [N#Cc1ccc(CN2CC(Oc3ccc(F)c(F)c3)C2)cc1] | 71.4 min
55 | N#Cc1cccc(CN2CCOC[C@H](O)C2)c1 [N#Cc1cccc(CN2CCOC[C@H](O)C2)c1] | 51.1 min
56 | Cc1ccccc1-c1n[nH]c2ncc(-c3cccc(F)c3)nc12 [Cc1ccccc1-c1n[nH]c2ncc(-c3cccc(F)c3)nc12] | 49 min
57 | O=C(NCCc1c[nH]cn1)c1ccc(-c2ncc3cnc(-c4cccc(F)c4)cn23)cc1 | 14.9 min
58 | Fc1cccc(-c2noc(-c3nc(-c4ccncc4)no3)n2)c1 [Fc1cccc(-c2noc(-c3nc(-c4ccncc4)no3)n2)c1] | 26.4 min
59 | O=C(Nc1cnc(-c2ccccc2)nc1)c1cccc(F)c1 [O=C(Nc1cnc(-c2ccccc2)nc1)c1cccc(F)c1] | 52 min
60 | O=c1c2nc(Nc3cccc(F)c3)ccc2ncn1-c1ccccc1 [O=c1c2nc(Nc3cccc(F)c3)ccc2ncn1-c1ccccc1] | 93.9 min
61 | COc1cncc(Nc2ncc(-c3cccc(F)c3)c3c2OCC3)c1 [COc1cncc(Nc2ncc(-c3cccc(F)c3)c3c2OCC3)c1] | 80.3 min
62 | Fc1cccc(Nc2ncc(-c3cccnc3)c3c2OCC3)c1 [Fc1cccc(Nc2ncc(-c3cccnc3)c3c2OCC3)c1] | 76.6 min
63 | CNC(=O)[C@@H]1CN(C(=O)c2cccc(C#N)c2)C[C@H]1COC | 86.6 min
64 | Cc1cc(F)ccc1OC1CN(Cc2ccc(C#N)cc2)C1 [Cc1cc(F)ccc1OC1CN(Cc2ccc(C#N)cc2)C1] | 35.4 min
65 | Cc1noc(C)c1-c1cc(-c2cccc(F)c2)cn2cncc12 [Cc1noc(C)c1-c1cc(-c2cccc(F)c2)cn2cncc12] | 90 min
66 | N#Cc1cccc(CN2C[C@@H](CO)[C@H](c3ccccn3)C2)c1 | 57.4 min
67 | Fc1cccc(-c2c[nH]c([C@@H]3COCCN3Cc3c[nH]cn3)n2)c1 | 59.3 min
68 | N#Cc1ccc(CN2C[C@@H](CO)[C@H](c3ccncc3)C2)cc1 | 107.1 min
69 | N#Cc1ccccc1CN1CCC2(CC1)CC(O)CCO2 (stereo not shown) [N#Cc1ccccc1CN1CCC2(CC1)CC(O)CCO2] | 80.3 min
70 | N#Cc1ccc(CN2CCC(N3CCNC3=O)CC2)cc1 [N#Cc1ccc(CN2CCC(N3CCNC3=O)CC2)cc1] | 93.2 min
71 | O=C(c1cccs1)N1CCC(Oc2cccc(F)c2)C1 (stereo not shown) [O=C(c1cccs1)N1CCC(Oc2cccc(F)c2)C1] | 17.4 min
72 | Cn1cnc2ccc(Nc3cccc(F)c3)nc2c1=O [Cn1cnc2ccc(Nc3cccc(F)c3)nc2c1=O] | 115.2 min
73 | N#Cc1cccc(-c2cn3c(n2)N(C(=O)c2ccco2)CCC3)c1 | 36.7 min
74 | Cc1ccc(-c2noc([C@@H]3Cc4[nH]cnc4CN3Cc3cccc(C#N)c3)n2)cc1 | 63.4 min
75 | Cn1ccc(NC(=O)c2ccc(-c3ncc4cnc(-c5cccc(F)c5)cn34)cc2)n1 | 33.2 min
76 | N#Cc1cccc(CN2CCOC[C@H]2c2nc(-c3ccc(F)cc3)c[nH]2)c1 | 94.7 min
77 | O=c1c2nc(Nc3cccc(F)c3)ccc2ncn1-c1cccnc1 [O=c1c2nc(Nc3cccc(F)c3)ccc2ncn1-c1cccnc1] | 96.4 min
78 | Fc1cccc(-c2cnc(Nc3cncnc3)c3c2CCO3)c1 [Fc1cccc(-c2cnc(Nc3cncnc3)c3c2CCO3)c1] | 9.6 min
79 | CCOc1cc(=O)n2c(c1C(=O)Nc1ccc(C#N)cc1)CCCC2 | 101.4 min
80 | N#Cc1cccc(-c2c(C(=O)N3CCCCC3)nc3sccn23)c1 | 103.4 min
81 | Cc1ccc(NC(=O)c2nc3sccn3c2-c2cccc(C#N)c2)cc1 | 17.4 min
82 | Cc1cc(OC2CN(Cc3ccc(C#N)cc3)C2)ccc1F [Cc1cc(OC2CN(Cc3ccc(C#N)cc3)C2)ccc1F] | 43.8 min
